Structures are written as SMILES.

This assay has as its system Ba/F3 cells (IL-3 dependent murine pro-B cell line). The assay can be described thus: Proliferation assay (MTT), parental Ba/F3 cells. Format: cell-based. As to conditions: Mus musculus, 48 h, drug concentrations 0.005-10 μM, read-out: BaF3. The method, then:
Interleukin-3 (IL-3) dependent murine pro-B cell line, Ba/F3, and murine myeloid precursor cell line, 32D, were maintained in RPMI-1640 medium supplemented with L-Glutamine, 10% FBS and 10 U/ml recombinant murine IL-3 (Roche). Mo7e human megakarioblastic cell line was grown in RPMI-1640 medium supplemented with L-Glutamine, 20% FBS and 5 ng/ml recombinant human granulocyte macrophage cell stimulating factor (GM-CSF) (R&D Systems) or 200 ng/ml stem cell factor (SCF) (Biosource).
Cells (0.3-0.6×10^6/ml) were plated in duplicate or triplicate in 96-well plates containing increasing drug concentrations (0.005-10 μM). After incubation at 37° C. in 5% CO2 for 48 h, the effect of the compounds on cell viability was determined by MTT (Promega) colorimetric dye reduction method. Inhibition of cell proliferation was calculated as a percentage of growth of DMSO treated cells, and IC50 values were determined with Microsoft Excel XLfit3.

Turning to `FC(F)(F)Oc1ccc(Nc2ncnc3[nH]ncc23)cc1`, the IC50 is more than 10 µM.

As to `CCn1ncc2c(Nc3ccc(OC(F)(F)F)cc3)ncnc21`, the IC50 is more than 10 µM.

For the compound `CCn1cc2c(Nc3ccc(OC(F)(F)F)cc3)ncnc2n1`, the IC50 was more than 10 µM.

On to `CCS(=O)(=O)n1ncc2c(Nc3ccc(OC(F)(F)F)cc3)ncnc21`, for which the IC50 came to 7 µM.

As for `FC(F)(F)Oc1ccc(Nc2ncnc3c2cnn3C2CCCCC2)cc1`, the IC50 was determined as 9.3 µM.

Turning to `FC(F)(F)Oc1ccc(Nc2ncnc3nn(C4CCCCC4)cc23)cc1`, the IC50 was more than 10 µM.

On to `NC(=O)Cn1ncc2c(Nc3ccc(OC(F)(F)F)cc3)ncnc21`, for which the IC50 was more than 10 µM.

As to `NC(=O)Cn1cc2c(Nc3ccc(OC(F)(F)F)cc3)ncnc2n1`, the IC50 was more than 3.3 µM.

Consider `NC(=O)CCn1ncc2c(Nc3ccc(OC(F)(F)F)cc3)ncnc21`, for which the IC50 stood at 8.7 µM.

As to `FC(F)(F)Oc1ccc(Nc2ncnc3c2cnn3CC2CCOC2)cc1` (centres unmarked), the IC50 was more than 10 µM.

Consider `FC(F)(F)Oc1ccc(Nc2ncnc3nn(CC4CCOC4)cc23)cc1` (centres unmarked), for which the IC50 is more than 10 µM.

Turning to `CN(C)CC(C#N)n1ncc2c(Nc3ccc(OC(F)(F)F)cc3)ncnc21` (centres unmarked), the IC50 was more than 10 µM.

Consider `CCCCn1ncc2c(Nc3ccc(OC(F)(F)F)cc3)ncnc21`, for which the IC50 amounted to 6.6 µM.

As to `CCCCn1cc2c(Nc3ccc(OC(F)(F)F)cc3)ncnc2n1`, the IC50 is more than 10 µM.

On to `CC(C)(C)n1ncc2c(Nc3ccc(OC(F)(F)F)cc3)ncnc21`, for which the IC50 was 7.3 µM.

As for `FC(F)(F)Cn1ncc2c(Nc3ccc(OC(F)(F)F)cc3)ncnc21`, the IC50 is more than 10 µM.

As for `FC(F)(F)Cn1cc2c(Nc3ccc(OC(F)(F)F)cc3)ncnc2n1`, the IC50 is 8 µM.

On to `FC(F)(F)Oc1ccc(Nc2ncnc3c2cnn3Cc2ccccc2)cc1`, for which the IC50 was more than 10 µM.

With `FC(F)(F)Oc1ccc(Nc2ncnc3nn(Cc4ccccc4)cc23)cc1`, the IC50 is more than 10 µM.

Turning to `FC(F)(F)Oc1ccc(Nc2ncnc3c2cnn3CCc2ccccc2)cc1`, the IC50 was more than 10 µM.

With `FC(F)(F)Oc1ccc(Nc2ncnc3nn(CCc4ccccc4)cc23)cc1`, the IC50 is more than 10 µM.

As for `Fc1cc(Cn2cc3c(Nc4ccc(OC(F)(F)F)cc4)ncnc3n2)ccc1C(F)(F)F`, the IC50 is 4.6 µM.

As for `FC(F)(F)Oc1ccc(Nc2ncnc3nn(Cc4cccc(Br)c4)cc23)cc1`, the IC50 was more than 10 µM.

Take `Oc1cccc(Cn2cc3c(Nc4ccc(OC(F)(F)F)cc4)ncnc3n2)c1`: the IC50 came to 6.9 µM.

As for `FC(F)(F)Oc1ccc(Nc2ncnc3nn(Cc4cccnc4)cc23)cc1`, the IC50 amounted to 2.1 µM.

Consider `FC(F)(F)Oc1ccc(Nc2ncnc3c2cnn3Cc2ccccn2)cc1`, for which the IC50 is more than 10 µM.

As to `FC(F)(F)Oc1ccc(Nc2ncnc3c2cnn3Cc2ccncc2)cc1`, the IC50 was more than 10 µM.

For the compound `O=C1c2ccccc2C(=O)N1CCn1ncc2c(Nc3ccc(OC(F)(F)F)cc3)ncnc21`, the IC50 is more than 10 µM.

On to `NCCn1ncc2c(Nc3ccc(OC(F)(F)F)cc3)ncnc21`, for which the IC50 was more than 10 µM.

On to `FC(F)(F)Oc1ccc(Nc2ncnc3c2cnn3-c2cc(C(F)(F)F)ccn2)cc1`, for which the IC50 is more than 10 µM.

Turning to `FC(F)(F)Oc1ccc(Nc2ncnc3nn(-c4cc(C(F)(F)F)ccn4)cc23)cc1`, the IC50 was more than 10 µM.

Take `Cc1cccc(-n2ncc3c(Nc4ccc(OC(F)(F)F)cc4)ncnc32)c1C`: the IC50 is more than 10 µM.

Turning to `Cc1cccc(-n2cc3c(Nc4ccc(OC(F)(F)F)cc4)ncnc3n2)c1C`, the IC50 is more than 10 µM.

Turning to `Fc1ccccc1-n1ncc2c(Nc3ccc(OC(F)(F)F)cc3)ncnc21`, the IC50 was more than 10 µM.

In the case of `Fc1ccccc1-n1cc2c(Nc3ccc(OC(F)(F)F)cc3)ncnc2n1`, the IC50 was more than 10 µM.

With `FC(F)(F)Oc1ccc(Nc2ncnc3c2cnn3-c2ccc(Cl)cc2Cl)cc1`, the IC50 was more than 10 µM.

For `FC(F)(F)Oc1ccc(Nc2ncnc3nn(-c4ccc(Cl)cc4Cl)cc23)cc1`, the IC50 is more than 10 µM.

On to `CCc1ccccc1-n1ncc2c(Nc3ccc(OC(F)(F)F)cc3)ncnc21`, for which the IC50 is more than 10 µM.

For `CCc1ccccc1-n1cc2c(Nc3ccc(OC(F)(F)F)cc3)ncnc2n1`, the IC50 is more than 10 µM.

Regarding `NS(=O)(=O)c1cccc(-n2ncc3c(Nc4ccc(OC(F)(F)F)cc4)ncnc32)c1`, the IC50 turned out to be 1.8 µM.

Regarding `Cn1cnc2ncnc(Nc3ccc(OC(F)(F)F)cc3)c21`, the IC50 is more than 10 µM.

In the case of `OC[C@H]1OC(n2cnc3c(Nc4ccc(OC(F)(F)F)cc4)ncnc32)[C@H](O)[C@@H]1O` (some centres unmarked), the IC50 was more than 10 µM.

On to `FC(F)(F)Oc1ccc(Nc2ncnc3c2ncn3CCN2CCOCC2)cc1`, for which the IC50 was more than 10 µM.

As for `OC[C@H]1OC(n2ccc3c(Nc4ccc(OC(F)(F)F)cc4)ncnc32)[C@H](O)[C@@H]1O` (some centres unmarked), the IC50 was more than 10 µM.

Consider `OCCn1ccc2c(Nc3ccc(OC(F)(F)F)cc3)ncnc21`, for which the IC50 was more than 10 µM.

`COc1ccc(Cn2ccc3c(Nc4ccc(OC(F)(F)F)cc4)ncnc32)cc1`: the IC50 is more than 10 µM.

As to `COCCCNC(=O)CCn1ccc2c(Nc3ccc(OC(F)(F)F)cc3)ncnc21`, the IC50 is more than 10 µM.

With `Cn1c(C(=O)N2CCC(Br)CC2)cc2c(Nc3ccc(OC(F)(F)F)cc3)ncnc21`, the IC50 is more than 10 µM.

Consider `CCOC(=O)C1CCCN(C(=O)c2cc3c(Nc4ccc(OC(F)(F)F)cc4)ncnc3n2C)C1` (centres unmarked), for which the IC50 is more than 10 µM.

For `Cn1c(C(=O)N2CCCC(CO)C2)cc2c(Nc3ccc(OC(F)(F)F)cc3)ncnc21` (centres unmarked), the IC50 came out at 7.29 µM.

In the case of `Cn1c(C(=O)N2CCC3(CC2)C(=O)NCN3c2ccccc2)cc2c(Nc3ccc(OC(F)(F)F)cc3)ncnc21`, the IC50 is more than 10 µM.

Take `COC[C@H]1CCCN1C(=O)c1cc2c(Nc3ccc(OC(F)(F)F)cc3)ncnc2n1C`: the IC50 is more than 10 µM.

Regarding `CCNC(=O)c1cc2c(Nc3ccc(OC(F)(F)F)cc3)ncnc2n1C`, the IC50 was determined as 5.37 µM.

`OCc1cc2c(Nc3ccc(OC(F)(F)F)cc3)ncnc2s1`: the IC50 is more than 10 µM.

Turning to `O=C(c1cc2c(Nc3ccc(OC(F)(F)F)cc3)ncnc2s1)N1CCN(N2CCCC2)CC1`, the IC50 amounted to 5.77 µM.

On to `COC1CCN(C(=O)c2cc3c(Nc4ccc(OC(F)(F)F)cc4)ncnc3s2)CC1`, for which the IC50 is more than 10 µM.

Consider `CCOC(=O)Cc1cnc(NC(=O)c2ccc3c(Nc4ccc(OC(F)(F)F)cc4)ncnc3c2)s1`, for which the IC50 was more than 10 µM.

Regarding `CN(C)C1CCN(C(=O)c2ccc3c(Nc4ccc(OC(F)(F)F)cc4)ncnc3c2)C1` (centres unmarked), the IC50 was more than 10 µM.

On to `CN1CCCN(C(=O)c2ccc3c(Nc4ccc(OC(F)(F)F)cc4)ncnc3c2)CC1`, for which the IC50 came to 6.98 µM.

For `O=C(c1ccc2c(Nc3ccc(OC(F)(F)F)cc3)ncnc2c1)N1CCC(O)CC1`, the IC50 is more than 10 µM.

For `O=C(c1ccc2c(Nc3ccc(OC(F)(F)F)cc3)ncnc2c1)N1CCC(Br)CC1`, the IC50 came out at 7.42 µM.

On to `NC(=O)C1CCN(C(=O)c2ccc3c(Nc4ccc(OC(F)(F)F)cc4)ncnc3c2)CC1`, for which the IC50 was more than 10 µM.

As to `O=C(c1ccc2c(Nc3ccc(OC(F)(F)F)cc3)ncnc2c1)N1CCCC(CO)C1` (centres unmarked), the IC50 was more than 10 µM.

With `O=C1Cc2c(ncnc2Nc2ccc(OC(F)(F)F)cc2)N1`, the IC50 is more than 10 µM.

`CN1C(=O)Cc2c(Nc3ccc(OC(F)(F)F)cc3)ncnc21`: the IC50 was more than 10 µM.

Turning to `Cc1c(Nc2ccc(OC(F)(F)F)cc2)ncnc1-c1ccc(S(N)(=O)=O)cc1`, the IC50 is more than 10 µM.

On to `CC(C)S(=O)(=O)c1ccc(-c2cc(Nc3ccc(OC(F)(F)F)cc3)ncn2)cc1`, for which the IC50 was more than 10 µM.

On to `CCN(CC)S(=O)(=O)c1ccc(-c2ncnc(Nc3ccc(OC(F)(F)F)cc3)c2C)cc1`, for which the IC50 is more than 10 µM.

For the compound `CCS(=O)(=O)Nc1ccc(-c2cc(Nc3ccc(OC(F)(F)F)cc3)ncn2)cc1`, the IC50 was 8.31 µM.

`CCCCS(=O)(=O)Nc1ccc(-c2cc(Nc3ccc(OC(F)(F)F)cc3)ncn2)cc1`: the IC50 was found to be 8.92 µM.

As for `CC(C)S(=O)(=O)Nc1ccc(-c2cc(Nc3ccc(OC(F)(F)F)cc3)ncn2)cc1`, the IC50 turned out to be 6.93 µM.

For `COCCCNC(=O)c1ccc(-c2ncnc(Nc3ccc(OC(F)(F)F)cc3)c2C)cc1`, the IC50 turned out to be 3.11 µM.

Turning to `FC(F)(F)Oc1ccc(Nc2cc(Nc3cc(C4CC4)[nH]n3)ncn2)cc1`, the IC50 came to 5.62 µM.

`FC(F)(F)Oc1ccc(Nc2cc(Nc3nccn3-c3cccc(C(F)(F)F)c3)ncn2)cc1`: the IC50 turned out to be 2.56 µM.

With `Cn1cc(-c2cc(Nc3ccc(OC(F)(F)F)cc3)ncn2)cn1`, the IC50 is more than 10 µM.

Take `Cc1c(Nc2ccc(OC(F)(F)F)cc2)ncnc1-c1cnn(CC(C)C)c1`: the IC50 was determined as 1.46 µM.

As for `FC(F)(F)Oc1ccc(Nc2cc(-c3cc(NCCN4CCOCC4)ncn3)ncn2)cc1`, the IC50 was more than 10 µM.

As for `Cc1c(Nc2ccc(OC(F)(F)F)cc2)ncnc1-c1cnn(C)c1`, the IC50 was more than 10 µM.

In the case of `Cc1c(Nc2ccc(OC(F)(F)F)cc2)ncnc1-c1cnn(Cc2ccccc2)c1`, the IC50 came to 9.9 µM.

In the case of `FC(F)(F)Oc1ccc(Nc2cc(-c3cnn(Cc4cccnc4)c3)ncn2)cc1`, the IC50 is more than 10 µM.

With `O=Cc1cnc2c(ccn2CCN2CCOCC2)c1Nc1ccc(OC(F)(F)F)cc1Br`, the IC50 was more than 10 µM.

On to `O=[N+]([O-])c1cccc(-c2cn3cnc(Nc4ccc(OC(F)(F)F)cc4)cc3n2)c1` [2-(3-nitrophenyl)-N-(4-(trifluoromethoxy)phenyl)imidazo[1,2-c]pyrimidin-7-amine], for which the IC50 turned out to be 9.6 µM.

Consider `OCCn1ncc2c(Nc3ccc(OC(F)(F)F)cc3)ncnc21` [2-(4-(4-(trifluoromethoxy)phenylamino)-1H-pyrazolo[3,4-d]pyrimidin-1-yl)ethanol], for which the IC50 was more than 10 µM.

These data come from US9670214B2, “Small molecule myristate inhibitors of Bcr-abl and methods of use” (DANA-FARBER CANCER INSTITUTE, INC., priority 2007, dated 2017).
